Measurements published in BigSolDB 2.1.

## Brc1cn[nH]c1
In ethanol, 283.15 K
  solubility (mole fraction): 0.265
In ethanol, 285.65 K
  solubility (mole fraction): 0.275
In ethanol, 288.15 K
  solubility (mole fraction): 0.287
In ethanol, 290.65 K
  solubility (mole fraction): 0.299
In ethanol, 293.15 K
  solubility (mole fraction): 0.311
In ethanol, 295.65 K
  solubility (mole fraction): 0.325
In ethanol, 298.15 K
  solubility (mole fraction): 0.339
In ethanol, 300.65 K
  solubility (mole fraction): 0.354
In ethanol, 303.15 K
  solubility (mole fraction): 0.372
In ethanol, 305.65 K
  solubility (mole fraction): 0.39
In ethanol, 308.15 K
  solubility (mole fraction): 0.409
In ethanol, 310.65 K
  solubility (mole fraction): 0.431
In ethanol, 313.15 K
  solubility (mole fraction): 0.457
In ethanol, 315.65 K
  solubility (mole fraction): 0.481
In ethanol, 318.15 K
  solubility (mole fraction): 0.506
In methanol, 283.15 K
  solubility (mole fraction): 0.203
In methanol, 285.65 K
  solubility (mole fraction): 0.218
In methanol, 288.15 K
  solubility (mole fraction): 0.234
In methanol, 290.65 K
  solubility (mole fraction): 0.252
In methanol, 293.15 K
  solubility (mole fraction): 0.27
In methanol, 295.65 K
  solubility (mole fraction): 0.292
In methanol, 298.15 K
  solubility (mole fraction): 0.312
In methanol, 300.65 K
  solubility (mole fraction): 0.333
In methanol, 303.15 K
  solubility (mole fraction): 0.355
In methanol, 305.65 K
  solubility (mole fraction): 0.379
In methanol, 308.15 K
  solubility (mole fraction): 0.402
In methanol, 310.65 K
  solubility (mole fraction): 0.426
In methanol, 313.15 K
  solubility (mole fraction): 0.452
In methanol, 315.65 K
  solubility (mole fraction): 0.479
In methanol, 318.15 K
  solubility (mole fraction): 0.503
In water, 283.15 K
  solubility (mole fraction): 0.0048
In water, 285.65 K
  solubility (mole fraction): 0.00501
In water, 288.15 K
  solubility (mole fraction): 0.00532
In water, 290.65 K
  solubility (mole fraction): 0.00562
In water, 293.15 K
  solubility (mole fraction): 0.00591
In water, 295.65 K
  solubility (mole fraction): 0.00623
In water, 298.15 K
  solubility (mole fraction): 0.0066
In water, 300.65 K
  solubility (mole fraction): 0.00696
In water, 303.15 K
  solubility (mole fraction): 0.00733
In water, 305.65 K
  solubility (mole fraction): 0.00772
In water, 308.15 K
  solubility (mole fraction): 0.00809
In water, 310.65 K
  solubility (mole fraction): 0.00848
In water, 313.15 K
  solubility (mole fraction): 0.00895
In water, 315.65 K
  solubility (mole fraction): 0.00941
In water, 318.15 K
  solubility (mole fraction): 0.00987
